This is an account of results in US12110293B2, “Substituted triazolo quinoxaline derivatives” (GRÜNENTHAL GMBH, priority 2018, dated 2024).

The assay has as its target T1, glucocorticoid receptor (Homo sapiens, UniProt P04150).
T1 construct: expressed in transfected cells
T1 sequence (P04150 524-758 limits assumed): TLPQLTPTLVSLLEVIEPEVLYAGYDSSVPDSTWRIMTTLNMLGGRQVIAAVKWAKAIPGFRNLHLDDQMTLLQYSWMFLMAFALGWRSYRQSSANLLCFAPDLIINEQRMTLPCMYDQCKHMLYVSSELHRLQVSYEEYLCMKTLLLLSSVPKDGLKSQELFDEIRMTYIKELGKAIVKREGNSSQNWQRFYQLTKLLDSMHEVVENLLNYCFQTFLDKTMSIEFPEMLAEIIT
The assay is described as follows: Agonistic mode of action on the glucocorticoid receptor (CHO-Gal4/GR luciferase reporter cell line). The format is cell-based. To be noted: range class observed in the agonistic assay or the antagonistic assay (CHO-Gal4/GR reporter cells); table does not say which mode applies per example. The text has this: Potential selective glucocorticoid receptor modulators of this intervention can be tested for modulation of the activity of the glucocorticoid receptor using cell-based assays. These assays involve a Chinese hamster ovary (CHO) cell line which contains fragments of the glucocorticoid receptor as well as fusion proteins. The glucocorticoid receptor fragments used are capable of binding the ligand (e.g. beclomethasone) to identify molecules that compete for binding with glucocorticoid receptor ligands. In more detail, the glucocorticoid receptor ligand binding domain is 25 fused to the DNA binding domain (DBD) of the transcriptionfactor GAL4 (GAL4 DBD-GR) and is stably integrated into a CHO cell line containing a GAL4-UAS-Luciferase reporter construct. […] After cell lysis the luminescence that is produced by luciferase after addition of the substrate is detected and EC50 or IC50 values can be calculated. Engagement of molecules which induce gene expression via glucocortocoid receptor binding to the DNA leads to expression of the luciferase gene under the control of the fusion protein GAL4 DBD-GR and therefore to a dose-dependent increase of the luminescence signal. Binding of molecules which repress beclomethasone-induced gene expression of the luciferase gene under the control of the fusion protein GAL4 DBD-GR leads to a dose-dependent reduction of the luminescence signal.
Biological Assays Agonistic Mode of Action on the Glucocorticoid Receptor
The reporter cell line CHO-Gal4/GR consisted of a Chinese hamster ovary (CHO) cell line (Leibniz Institute DSMZ—German Collection of Microorganisms and Cell CuItures GmbH: ACC-110) containing a firefly luciferase gene under the control of the GR ligand binding domain fused to the DNA binding domain (DBD) of GAL4 (GAL4 DBD-GR) stably integrated into CHO cells. This cell line was established by stable transfection of CHO cells with a GAL4-UAS-Luciferase reporter construct. In a subsequent step the ligand binding domain of the GR cloned into pIRES2-EGFP-GAL4 containing the DNA binding domain of GAL4 from pFA-AT2 was transfected. This fusion construct activated firefly luciferase expression under the control of a multimerized GAL4 upstream activation sequence (UAS). The signal of the emitted luminescence was recorded by the FLIPR^TETRA. This allowed for specific detection of ligand-induced activation of the GR and therefore for the identification of compounds with agonistic properties. The GAL4/UAS reporter was premixed with a vector that constitutively expressed Renilla luciferase, which served as an internal positive control for transfection efficiency.
The complete culture medium for the assay was: • DMEM F-12 (1:1) MIXTURE (LONZA cat. N°: BE04-687F/U1) 500 mL • 5 mL of 100 mM Sodium Pyruvate (LONZA cat. N°: BE12-115E) • 25 mL of 7.5% Sodium Bicarbonate (LONZA cat. N° BE17-613E) • 6.5 mL of 1 M Hepes (LONZA cat. N°: BE17-737E) • 5 mL of 100× Penicillin/Streptomycin (LONZA cat. N° DE17-602E) • 50 mL of Fetal Bovine Serum (Euroclone cat. N° ECS 0180L) • 0.25 mL of 10 mg/mL Puromycin (InvivoGen cat.: ant-pr-1) • 0.5 mL of 100 mg/mL Zeocin (InvivoGen cat.: ant-zn-1)
Cryo-preserved CHO-Gal4/GR cells were suspended in complete medium and 5000 cells/25 μl/well were seeded into the wells of 384-well polystyrene assay plates (Thermo Scientific, cat. #4332) and cultured at 37° C., 5% CO2 and 95% humidity. After 24 hours growth medium was carefully removed and replaced by 30 μl Opti-MEM (GIBCO, cat. #31985062) as assay buffer. To test the compounds an 8-point half-log compound dilution curve was generated in 100% DMSO starting from a 2 mM stock and compounds were then diluted 1:50 in Opti-MEM. 10 μl of compounds were then added to the wells containing 30 μl Opti-MEM resulting in a final assay concentration range from 10 μM to 0.003 μM in 0.5% DMSO. Compounds were tested at 8 concentrations in quadruplicate data points.
In general terms: A reporter such as luciferase makes a cellular process visible.

With `Cc1cc2c(c(C)c1-c1cc(F)cc3c(C)c[nH]c13)-n1c(C)nnc1C(C)(C)N2` [Example 341, 8-(5-Fluoro-3-methyl-1H-indol-7-yl)-1,4,4,7,9-pentamethyl-5H-[1,2,4]triazolo[4,3-a]quinoxaline], the IC50 or EC50 (agonist or antagonist mode not specified) is 0.1 to 1 µM. The molecule `Cc1c[nH]c2c(-c3c(F)cc4c(c3Cl)-n3c(C)nnc3C(C)(C)N4)cc(F)cc12` [Example 30] had an IC50 or EC50 (agonist or antagonist mode not specified) of less than 0.1 µM. In the case of `Cc1nnc2n1-c1c(ccc(-c3cc(F)cc4c3ccn4S(C)(=O)=O)c1C(F)F)NC2(C)C` [Example 526, 9-(Difluoro-methyl)-8-(6-fluoro-1-methylsulfonyl-1H-indol-4-yl)-1,4,4-trimethyl-5H-[1,2,4] triazolo[4,3-a]quinoxaline], the IC50 or EC50 (agonist or antagonist mode not specified) is 0.1 to 1 µM. Regarding `CCc1c(-c2cc(F)cc3c2cnn3CCO)c(F)cc2c1-n1c(C)nnc1C(C)(C)N2` [Example 45, 2-[4-(9-Ethyl-7-fluoro-1,4,4-trimethyl-5H-[1,2,4]triazolo[4,3-a]quinoxalin-8-yl)-6-fluoro-1H-indazol-1-yl]-ethanol], the IC50 or EC50 (agonist or antagonist mode not specified) lay in the range of 0.1 to 1 µM.

As for `Cc1c(-c2cccc3c2cnn3S(C)(=O)=O)c(F)cc2c1-n1c(C)nnc1C(C)(C)N2` [Example 377, 7-Fluoro-1,4,4,9-tetramethyl-8-(1-methylsulfonyl-1H-indazol-4-yl)-5H-[1,2,4]triazolo[4,3-a]quinoxaline], the IC50 or EC50 (agonist or antagonist mode not specified) was in the range of 0.1 to 1 µM. `Cc1nnc2n1-c1c(cc(F)c(-c3cc(F)cc4c3cnn4CC(F)F)c1F)NC2(C)C` [Example 489, 8-[1-(2,2-Difluoro-ethyl)-6-fluoro-1H-indazol-4-yl]-7,9-difluoro-1,4,4-trimethyl-5H-[1,2,4]triazolo [4,3-a]quinoxaline] gave an IC50 or EC50 (agonist or antagonist mode not specified) of less than 0.1 µM.

On to `Cc1c[nH]c2c(-c3c(Cl)cc4c(c3F)-n3c(C)nnc3C(C)(C)N4)cc(F)cc12` [Example 290, 7-Chloro-9-fluoro-8-(5-fluoro-3-methyl-1H-indol-7-yl)-1,4,4-trimethyl-5H-[1,2,4]triazolo[4,3-a]quinoxaline], for which the IC50 or EC50 (agonist or antagonist mode not specified) lay in the range of 0.1 to 1 µM. In turn, `Cc1nnc2n1-c1c(cc(F)c(-c3cccc4cc[nH]c34)c1F)NC2(C)C` [Example 9, 7,9-difluoro-8-(1H-indol-7-yl)-1,4,4-trimethyl-4,5-dihydro-[1,2,4]triazolo[4,3-a]quinoxaline] gave an IC50 or EC50 (agonist or antagonist mode not specified) of 0.1 to 1 µM. The same measure for `Cc1c(-c2cccc3c2ccn3C)c(F)cc2c1-n1c(C)nnc1C(C)(C)N2` [Example 486, 7-Fluoro-1,4,4,9-tetramethyl-8-(1-methyl-1H-indol-4-yl)-5H-[1,2,4]triazolo[4,3-a]quinoxaline]: less than 0.1 µM; for `Cc1nnc2n1-c1c(cc(F)c(-c3cc(F)cc4[nH]ccc34)c1F)NC2(C)C` [Example 1, 7,9-difluoro-8-(6-fluoro-1H-indol-4-yl)-1,4,4-trimethyl-4,5-dihydro-[1,2,4]triazolo[4,3-a]quinoxaline]: less than 0.1 µM; for `CCc1nnc2n1-c1c(cc(F)c(-c3cc(F)cc4c3cnn4S(C)(=O)=O)c1C)NC2(C)C` [Example 348, 1-Ethyl-7-fluoro-8-(6-fluoro-1-methylsulfonyl-1H-indazol-4-yl)-4,4,9-trimethyl-5H-[1,2,4]triazolo [4,3-a]quinoxaline]: 1 to 15 µM.

In turn, `CCS(=O)(=O)n1ccc2c(-c3c(F)cc4c(c3C(F)F)-n3c(C)nnc3C(C)(C)N4)cccc21` [Example 461, 9-(Difluoro-methyl)-8-[1-(ethylsulfonyl)-1H-indol-4-yl]-7-fluoro-1,4,4-trimethyl-5H-[1,2,4] triazolo[4,3-a]quinoxaline] showed an IC50 or EC50 (agonist or antagonist mode not specified) of less than 0.1 µM. Consider `Cc1cc(-c2c(F)cc3c(c2C(F)F)-n2c(C)nnc2C(C)(C)N3)c2ccn(S(C)(=O)=O)c2c1` [Example 478, 9-(Difluoro-methyl)-7-fluoro-1,4,4-trimethyl-8-(6-methyl-1-methylsulfonyl-1H-indol-4-yl)-5H-[1,2,4]triazolo[4,3-a]quinoxaline], for which the IC50 or EC50 (agonist or antagonist mode not specified) lay in the range of 0.1 to 1 µM. Then `CCc1nnc2n1-c1c(cc(F)c(-c3cccc4c(C#N)c[nH]c34)c1F)NC2(C)C` [Example 12, 7-(T-ethyl-7,9-difluoro-4,4-dimethyl-4,5-dihydro-[1,2,4]triazolo[4,3-a]quinoxalin-8-yl)-1H-indole-3-carbonitrile], with 1 to 15 µM; and `COCCn1ccc2c(-c3c(F)cc4c(c3C(F)F)-n3c(C)nnc3C(C)(C)N4)cc(F)cc21` [Example 402, 9-(Difluoro-methyl)-7-fluoro-8-[6-fluoro-1-(2-methoxy-ethyl)-1H-indol-4-yl]-1,4,4-trimethyl-5H-[1,2,4]triazolo[4,3-a]quinoxaline], with 0.1 to 1 µM; and `Cc1nnc2n1-c1c(cc(F)c(-c3cc(F)cc4c3cnn4CCO)c1C(F)(F)F)NC2(C)C` [Example 449, 2-[6-Fluoro-4-[7-fluoro-1,4,4-trimethyl-9-(trifluoromethyl)-5H-[1,2,4]triazolo[4,3-a]quinoxalin-8-yl]-1H-indazol-1-yl]-ethanol], with less than 0.1 µM.

For `Cc1c[nH]c2c(-c3c(C(F)F)cc4c(c3F)-n3c(C)nnc3C(C)(C)N4)cc(F)cc12` [Example 296, 7-(Difluoro-methyl)-9-fluoro-8-(5-fluoro-3-methyl-1H-indol-7-yl)-1,4,4-trimethyl-5H-[1,2,4]triazolo[4,3-a]quinoxaline], the IC50 or EC50 (agonist or antagonist mode not specified) lay within 0.1 to 1 µM.

On to `Cc1c(-c2cc(F)cc3c(C)c[nH]c23)c(Cl)cc2c1-n1c(C)nnc1C(C)(C)N2` [Example 363, 7-Chloro-8-(5-fluoro-3-methyl-1H-indol-7-yl)-1,4,4,9-tetramethyl-5H-[1,2,4]triazolo[4,3-a]quinoxaline], for which the IC50 or EC50 (agonist or antagonist mode not specified) is less than 0.1 µM. The same measure for `CC#CCc1nnc2n1-c1c(cc(F)c(-c3cccc4c(C)c[nH]c34)c1F)NC2(C)C` [Example 70, 1-(but-2-yn-1-yl)-7,9-difluoro-4,4-dimethyl-8-(3-methyl-1H-indol-7-yl)-4,5-dihydro-[1,2,4]triazolo[4,3-a]quinoxaline]: less than 0.1 µM. On to `CCc1c[nH]c2c(-c3c(F)cc4c(c3F)-n3c(C)nnc3C(C)(C)N4)cc(F)cc12` [Example 43, 8-(3-ethyl-5-fluoro-1H-indol-7-yl)-7,9-difluoro-1,4,4-trimethyl-4,5-dihydro-[1,2,4]triazolo[4,3-a]quinoxaline], for which the IC50 or EC50 (agonist or antagonist mode not specified) was less than 0.1 µM. The same measure for `Cc1c[nH]c2c(-c3c(F)cc4c(c3F)-n3c(Cc5ccccn5)nnc3C(C)(C)N4)cccc12` [Example 75, 7,9-Difluoro-4,4-dimethyl-8-(3-methyl-1H-indol-7-yl)-1-(pyridin-2-yl-methyl)-5H-[1,2,4]triazolo[4,3-a]quinoxaline]: less than 0.1 µM.
